# Where no end group is shown, it is not given here.
# Tests used:
# Format in all cases: cell-based
# [1] = test system: human adipose-derived mesenchymal stem cells (AD-MSC); experiment: Cell morphology changes, SRB staining; details: different concentrations, after 7 days
# Procedure: Additionally, for SRB staining, after suctioning the medium from the plate, 60 µL of 3.7 % formalin was added to the 96-well plate to be stained and fixed for 1 minute. After suctioning 3.7 % formalin, 70 µL of SRB staining solution (sulforhodamine B sodium salt (sigma, S9012): 0.2 g in 100 mL DDW) was added and stained. The plate was covered with aluminum foil, blocked from light, and incubated overnight at room temperature. After washing with 100 µL of 1 % acetic acid using a multi-pipette, it was dried and observed under a microscope.
# [2] = test system: human-derived chondrocytes (C28/I2, human chondrocyte cell line); experiment: Cytotoxicity, CCK-8 assay; details: C28/I2 cells, different concentrations, after 3 days, 450 nm
# Procedure: The cytotoxicity of Peptide-1 or Peptide-2 upon addition to human-derived chondrocytes (C28/I2, human chondrocyte cell line) was analyzed using a CCK-8 assay.
# Specifically, human-derived chondrocytes were seeded in a 96-well plate at a density of 3 × 10^3 cells/well and cultured in DMEM medium (cat. 11995-065, Gibco) for 24 hours. […] Meanwhile, as a negative control group, an experimental group to which the peptide was not added was used.
# [3] = test system: human adipose-derived mesenchymal stem cells (AD-MSC); experiment: Cytotoxicity, CCK-8 assay; details: different concentrations, after 7 days, 450 nm
Substance,change in cell morphology in SRB staining [1],toxicity (CCK-8 activity) [2],toxicity (CCK-8 activity) [3]
"KVSYAAEKNRKNY [Peptide-1, KVSYAAEKNRKNY]",did not show any change in cell morphology,did not exhibit toxicity,did not exhibit toxicity
"SSFYF [Peptide-2, SSFYF]",did not show any change in cell morphology,did not exhibit toxicity,did not exhibit toxicity

# From EP4631968A1, “PEPTIDE FOR CARTILAGE REGENERATION, AND USES THEREOF” (Caregen Co., Ltd., priority 2022, dated 2024)
